According to patent US20130184302A1, “METHODS FOR TREATING IRRITABLE BOWEL SYNDROME (IBS) AND INFECTIONS” (priority 2011, published 2013):

Tested on: subjects with d-IBS
Assay: Adequate relief of IBS symptoms and bloating (weekly yes/no questions), rifaximin BID study in d-IBS
Assay type: in vivo, human
Conditions: for Adequate Relief of Bloating: Failure / Adequate Relief of IBS symptoms: Failure / Adequate Relief of Bloating: Success / Adequate Relief of IBS symptoms: Success: Male; for Adequate Relief of Bloating: Success / Adequate Relief of IBS symptoms: Success: end of the Treatment Phase; for Percentage of Subjects with Adequate Relief of Bloating Symptom / Percentage of Subjects with Adequate Relief of IBS Symptoms: RFX 550 mg BID 14 days, ITT N = 191; for Percentage of Subjects with Adequate Relief of Bloating Symptom: at least two of the final three weeks of treatment phase; for Percentage of Subjects with Adequate Relief of IBS Symptoms: at least two of the final three weeks of treatment phase (Weeks 1 to 4); for Adequate Relief of Bloating, Post Treatment: Failures / Adequate Relief of Bloating, Post Treatment: Success / Adequate Relief of Bloating, Post Treatment: Failure: RFX 550 2w (N = 54); for Patients with adequate relief of bloating / Patients with adequate relief of global IBS symptoms: rifaximin 550 mg twice daily 14 days
Protocol: This example relates to a study of rifaximin in subjects with d-IBS. […] There were two measures of efficacy assessed. Subjects were questioned on the relief of overall IBS symptoms and bloating. […] The analyses defined success as a “yes” response to questions regarding adequate relief.
All subpopulations in the study responded to therapy. Baseline severity was determined using 7-point Lickert scales during screening for Abdominal Pain/Discomfort and Bloating, and the number, type (normal, hard, loose) and urgency of bowel movements.
Duration of effect was assessed in a follow-up period. Subjects that responded in the 4 week treatment period were followed for an additional 3 months.
The effect of treatment on the percentage of subjects who reported adequate relief of IBS and bloating symptoms for at least two of the final three weeks during the treatment phase (Weeks 1 to 4) is shown in Tables 5-7 and FIGS. 4-6 below.
The study assessed the effect over 12 weeks of follow-up on long-term adequate relief. Subjects who had adequate relief by Week 4 and remained symptom-free at Week 5 were followed during the post-treatment phase and shown in FIGS. 1 and 2. Superiority to placebo was maintained during the 12 weeks post-treatment follow-up. Results for IBS symptoms were RFX 550 mg BID 62.3% versus placebo 49.2%, and RFX 550 mg BID 59.3% versus 50.9% for placebo for the symptom of bloating through week 16. In assessing the follow-up data, there was statistical significance (p<0.05) of bloating and IBS symptoms for RFX 550 mg BID versus placebo.
Two measures of efficacy were assessed independently. The first was the proportion of subjects who provided a ‘yes’ response to the weekly SGA question: “In the past 7 days, have you had adequate relief of your IBS symptoms? (yes/no)”. The second endpoint was the proportion of subjects who provide a ‘yes’ response to the weekly individual symptom question: “In the past 7 days, have you had adequate relief of your symptom of bloating? (yes/no)”. Durability was based on the proportion of subjects that had adequate relief over the entire treatment phase.
It is reported herein that the severity of baseline symptoms of abdominal pain and bloating influenced the response to rifaximin treatment. The co-primary endpoints in this analysis assessed weekly yes/no responses to questions regarding adequate relief of global IBS symptoms and IBS-associated bloating. Severity of baseline IBS symptoms was evaluated as a potential confounder of clinical response and was categorized as mild/moderate or severe based on a mean score of ≦4 vs. >4 (on a 7-point scale) for bloating and abdominal pain.
The Weekly yes/no responses to questions regarding adequate relief of global IBS symptoms and IBS-associated bloating were assessed. Clinical response was defined as adequate relief for 2 of the final 3 treatment weeks (wk 2, 3, or 4). Severity of baseline IBS symptoms was evaluated as a potential confounder of clinical response and was categorized as mild/moderate or severe based on a mean score of ≦4 versus >4 (on a 7-point scale (0=not bothersome; 6=very bothersome)) for bloating and abdominal pain.

[1] = patients with mild/moderate abdominal pain at baseline
[2] = patients with mild/moderate bloating at baseline

CO[C@H]1/C=C/O[C@@]2(C)Oc3c(C)c(O)c4c(O)c(c5c(nc6cc(C)ccn65)c4c3C2=O)NC(=O)/C(C)=C\C=C\[C@H](C)[C@H](O)[C@@H](C)[C@@H](O)[C@@H](C)[C@H](OC(C)=O)[C@@H]1C [Rifaximin, (2S,16Z,18E,20S,21S,22R, 23R,24R,25S,26S,27S,28E)-5,6,21,23,25 Pentahydroxy-27-methoxy-2,4,11,16,20,22,24,26-octamethyl-2,7-(epoxypentadeca-(1,11,13)trienimino) benzofuro (4,5-e) pyrido(1,2,-a) benzimidazole-1,15(2H)-dione,25-acetate]
Treatment effect, IBS Sx (Gender M): 21%
Adequate Relief of Bloating: Failure (RFX 275 2w): 8 (57.1%)
Adequate Relief of IBS symptoms: Failure (RFX 275 2w): 9 (64.3%)
Adequate Relief of Bloating: Success (RFX 275 2w): 6 (42.9%)
Adequate Relief of IBS symptoms: Success (RFX 275 2w): 5 (35.7%)
Adequate Relief of Bloating: Failure (RFX 550 2w): 29 (53.7%)
Adequate Relief of IBS symptoms: Failure (RFX 550 2w): 25 (46.3%)
Adequate Relief of Bloating: Success (RFX 550 2w): 25 (46.3%)
Adequate Relief of IBS symptoms: Success (RFX 550 2w): 29 (53.7%)
Adequate Relief of Bloating: Failure (RFX 550 4w): 16 (72.7%)
Adequate Relief of IBS symptoms: Failure (RFX 550 4w): 15 (68.2%)
Adequate Relief of Bloating: Success (RFX 550 4w): 6 (27.3%)
Adequate Relief of IBS symptoms: Success (RFX 550 4w): 7 (31.8%)
Adequate Relief of Bloating: Failure (RFX 1100 2w): 16 (61.5%)
Adequate Relief of IBS symptoms: Failure (RFX 1100 2w): 14 (53.8%)
Adequate Relief of Bloating: Success (RFX 1100 2w): 10 (38.5%)
Adequate Relief of IBS symptoms: Success (RFX 1100 2w): 12 (46.2%)
Percentage of Subjects with Adequate Relief of Bloating Symptom: 46%
Percentage of Subjects with Adequate Relief of IBS Symptoms: 52%
Percentage of Subjects with Adequate Relief of IBS Symptoms (listed as RFX): 52.4%
Percentage of Subjects with Adequate Relief of Bloating Symptom (listed as RFX): 46.1%
Adequate Relief of Bloating, Post Treatment: Failures (Week 6): (9.3%)
Adequate Relief of Bloating, Post Treatment: Success (Week 6): (90.7%)
Adequate Relief of Bloating, Post Treatment: Failures (Week 7): (16.7%)
Adequate Relief of Bloating, Post Treatment: Success (Week 7): (83.3%)
Adequate Relief of Bloating, Post Treatment: Failures (Week 8): (13.0%)
Adequate Relief of Bloating, Post Treatment: Success (Week 8): (87.0%)
Adequate Relief of Bloating, Post Treatment: Failures (Week 9): (27.8%)
Adequate Relief of Bloating, Post Treatment: Success (Week 9): (72.2%)
Adequate Relief of Bloating, Post Treatment: Failures (Week 10): (27.8%)
Adequate Relief of Bloating, Post Treatment: Success (Week 10): (72.2%)
Adequate Relief of Bloating, Post Treatment: Failures (Week 11): (35.2%)
Adequate Relief of Bloating, Post Treatment: Success (Week 11): (64.8%)
Adequate Relief of Bloating, Post Treatment: Failure (Week 12): (33.3%)
Adequate Relief of Bloating, Post Treatment: Success (Week 12): (66.7%)
Adequate Relief of Bloating, Post Treatment: Failure (Week 13): (38.9%)
Adequate Relief of Bloating, Post Treatment: Success (Week 13): (61.1%)
Adequate Relief of Bloating, Post Treatment: Failure (Week 14): (37.0%)
Adequate Relief of Bloating, Post Treatment: Success (Week 14): (63.0%)
Adequate Relief of Bloating, Post Treatment: Failure (Week 15): (42.6%)
Adequate Relief of Bloating, Post Treatment: Success (Week 15): (57.4%)
Adequate Relief of Bloating, Post Treatment: Failure (Week 16): (40.7%)
Treatment effect, IBS Sx (aIBS): 31.4%*, 31.4%
Treatment effect, Bloating (dIBS only): 4.5%
Treatment effect, IBS Sx (dIBS only): 6.3%
Patients with adequate relief of bloating [1]: 44%
Patients with adequate relief of global IBS symptoms [1]: 50%
Patients with adequate relief of bloating [2]: 47%
Patients with adequate relief of global IBS symptoms [2]: 56%
Long-term adequate relief of IBS symptoms, post-treatment follow-up (through week 16, RFX 550 mg BID, subjects with adequate relief by Week 4): 62.3%
